The record followed here is patent US9650361B2, “N-(pyridin-2-yl)pyrimidin-4-amine derivatives containing a sulfoximine group” (BAYER PHARAM AKTIENGESELLSCHAFT, priority 2012, dated 2017).

Data set [1] can be described thus: Caco-2 permeation assay (Method 5). In kind it is in vitro ADME. The following applies: human, Caco-2, pH 7.2, 2 μM test compound; for Papp A→B at 2 h, 2 µM: read-out: Papp A-B (Mari); for Papp B→A at 2 h, 2 µM: read-out: Papp B-A (Mari); for efflux ratio at 2 h, 2 µM: Papp B-A / Papp A-B. How it is done: 5. Caco-2 Permeation Assay:
Caco-2 cells (purchased from DSMZ Braunschweig, Germany) were seeded at a density of 4.5×10^4 cells per well on 24 well insert plates, 0.4 μm pore size, and grown for 15 days in DMEM medium supplemented with 10% fetal bovine serum, 1% GlutaMAX (100×, GIBCO), 100 U/mL penicillin, 100 μg/mL streptomycin (GIBCO) and 1% non essential amino acids (100×). Cells were maintained at 37° C. in a humidified 5% CO2 atmosphere. Medium was changed every 2-3 day. Before running the permeation assay, the culture medium was replaced by a FCS-free hepes-carbonate transport buffer (pH 7.2). For assessment of monolayer integrity the transepithelial electrical resistance (TEER) was measured. Test compounds were predissolved in DMSO and added either to the apical or basolateral compartment in final concentration of 2 μM in transport buffer. Before and after 2 h incubation at 37° C. samples were taken from both compartments. Analysis of compound content was done after precipitation with methanol by LC/MS/MS analysis. Permeability (Papp) was calculated in the apical to basolateral (A→B) and basolateral to apical (B→A) directions. The apparent permeability was calculated using following equation: Papp=(Vr/Po)(1/S)(P2/t)
Where Vr is the volume of medium in the receiver chamber, Po is the measured peak area or height of the test drug in the donor chamber at t=o, S the surface area of the monolayer, P2 is the measured peak area of the test drug in the acceptor chamber after 2 h of incubation, and t is the incubation time. The efflux ratio basolateral (B) to apical (A) was calculated by dividing the Papp B-A by the Papp A-B. In addition the compound recovery was calculated. The following reference compounds were used for the classification of the permeability class: Antipyrine, Pyrazosin, Verapamil, Fluvastatin, Cimetidine, Ranitidine, Atenolol, Sulfasalazine.
On the technique in general: Caco-2 monolayers are a common model of the intestinal barrier.

Data set [2] is described as follows: Equilibrium shake flask solubility assay, thermodynamic solubility in water (Method 4a). In kind it is physicochemical. The following applies: aqueous buffer, thermodynamic from solid; phosphate buffer pH 6.5, 24 h, room temperature. As to the method: 4. Equilibrium Shake Flask Solubility Assay:
4a) Thermodynamic Solubility in Water
The thermodynamic solubility of compounds in water was determined by an equilibrium shake flask method (see for example: E. H. Kerns, L. Di: Drug-like Properties: Concepts, Structure Design and Methods, 276-286, Burlington, Mass., Academic Press, 2008). A saturated solution of the drug was prepared and the solution was mixed for 24 h to ensure that equilibrium was reached. The solution was centrifuged to remove the insoluble fraction and the concentration of the compound in solution was determined using a standard calibration curve. To prepare the sample, 2 mg solid compound was weighed in a 4 mL glass vial. 1 mL phosphate buffer pH 6.5 was added. The suspension was stirred for 24 hrs at room temperature. The solution was centrifuged afterwards. To prepare the sample for the standard calibration, 2 mg solid sample was dissolved in 30 mL acetonitrile. After sonification the solution was diluted with water to 50 mL. Sample and standards were quantified by HPLC with UV-detection. For each sample two injection volumes (5 and 50 μl) in triplicates were made. Three injection volumes (5 μl, […]) were made for the standard. […]
The areas of sample- and standard injections as well as the calculation of the solubility value (in mg/l) were determined by using HPLC software (Waters Empower 2 FR).

Data set [3] concerns the target T1, human carbonic anhydrase-1 (Homo sapiens, UniProt P00915).
T1 construct: purchased Sigma C4396
Kind of data set: Carbonic anhydrase assay, carbonic anhydrase-1 (Method 6). In kind it is biochemical. The note with it: read-out: Inhibition of Carbonic anhydrase-1 IC50. As to the method: (§1) 6. Carbonic Anhydrase Assay
(§2) The principle of the assay is based on the hydrolysis of 4-nitrophenyl acetate by carbonic anhydrases (Pocker & Stone, Biochemistry, 1967, 6, 668), with subsequent photometric determination of the dye product 4-nitrophenolate at 400 nm by means of a 96-channel spectral photometer.
(§3) 2 μL of the test compounds, dissolved in DMSO (100-fold final concentration), in a concentration range of 0.03-10 μmol/L (final), was pipetted as quadruplicates into the wells of a 96-hole microtiter plate. Wells that contained the solvent without test compounds were used as reference values (1. Wells without carbonic anhydrase for correction of the non-enzymatic hydrolysis of the substrate, and 2. Wells with carbonic anhydrase for determining the activity of the non-inhibited enzyme).
(§4) 188 μL of assay buffer (10 mmol/L of Tris/HCl, pH 7.4, 80 mmol/L of NaCl), with or without 3 units/well of carbonic anhydrase-1 [=human carbonic anhydrase-1 (Sigma, #C4396)] in order to determine carbonic anhydrase-1 inhibition or 3 units/well of carbonic anhydrase-2 [=human carbonic anhydrase-2 (Sigma, #C6165)] for measuring carbonic anhydrase-2 inhibition, was pipetted into the wells of the microtiter plate.

In data set [4] the target is T2, human carbonic anhydrase-2 (Homo sapiens, UniProt P00918).
T2 construct: purchased Sigma C6165
In words: Carbonic anhydrase assay, carbonic anhydrase-2 (Method 6). In kind it is biochemical. The following applies: read-out: Inhibition of Carbonic anhydrase-2 IC50. How it is done:
as §1, §2, §3, §4

The structures appear in SMILES notation. In brackets after ≈: the same amount, converted by molar mass.

T1 sequence (P00915 whole entry): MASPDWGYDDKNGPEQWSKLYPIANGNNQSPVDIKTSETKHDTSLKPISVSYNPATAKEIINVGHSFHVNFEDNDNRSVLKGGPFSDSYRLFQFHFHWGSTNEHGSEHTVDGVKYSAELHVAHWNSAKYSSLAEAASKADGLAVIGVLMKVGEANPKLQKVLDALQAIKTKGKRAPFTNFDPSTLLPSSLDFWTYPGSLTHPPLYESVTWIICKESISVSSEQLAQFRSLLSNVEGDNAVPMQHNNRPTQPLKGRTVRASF

With `COc1cc(F)ccc1-c1cc(Nc2cc(CS(C)(=N)=O)cc(C(F)(F)F)n2)ncn1` (racemic) [Example 10, (rac)-6-(4-Fluoro-2-methoxyphenyl)-N-{4-[(S-methylsulfonimidoyl)methyl]-6-(trifluoromethyl)pyridin-2-yl}pyrimidin-4-amine], in data set [1], the Papp A→B at 2 h, 2 µM is 4.5 ×10⁻⁶ cm/s; the Papp B→A at 2 h, 2 µM amounted to 20.6 ×10⁻⁶ cm/s; the efflux ratio at 2 h, 2 µM stood at 4.58.

Consider `COc1cc(F)ccc1-c1cc(Nc2cc(CS(C)(=N)=O)cc(C)n2)ncn1` (racemic) [Example 7, (rac)-6-(4-Fluoro-2-methoxyphenyl)-N-{6-methyl-4-[(S-methylsulfonimidoyl)methyl]pyridin-2-yl}pyrimidin-4-amine], for which, in data set [1], the Papp A→B at 2 h, 2 µM was 3.9 ×10⁻⁶ cm/s; the Papp B→A at 2 h, 2 µM was found to be 28.9 ×10⁻⁶ cm/s; the efflux ratio at 2 h, 2 µM was 7.49.

For `COc1cc(F)ccc1-c1cc(Nc2cc(CS(C)(=N)=O)ccn2)ncn1` (racemic) [Example 1, (rac)-6-(4-Fluoro-2-methoxyphenyl)-N-{4-[(S-methylsulfonimidoyl)methyl]pyridin-2-yl}pyrimidin-4-amine], the solubility at 24 h in data set [2] stood at 7 µg/mL (≈ 18.1 µM). Further, in data set [1], the Papp A→B at 2 h, 2 µM amounted to 2.6 ×10⁻⁶ cm/s; the basolateral-to-apical permeability (Papp B→A) at 2 h, 2 µM is 24.3 ×10⁻⁶ cm/s; the efflux ratio at 2 h, 2 µM was found to be 9.3. Also, the IC50 in data set [3] was greater than 10 µM. In addition, the IC50 in data set [4] is greater than 10 µM.

In general, Papp A→B refers to the apparent permeability from the apical to the basolateral side of a cell layer. Usually Papp B→A stands for the apparent permeability from the basolateral to the apical side of a cell layer. Usually efflux ratio stands for a quotient of directional permeabilities that is used to spot active efflux. One may read the solubility as the concentration that dissolves in the medium under given conditions. Low values mean little dissolved substance, high ones much dissolved substance. The term IC50 denotes the point on the concentration scale where inhibition reaches its midpoint.
